# Results reported in ChEMBL document CHEMBL3639191, “Benzimidazole derivatives: preparation and pharmaceutical applications” (2013).
# Experiments:
# Histone deacetylase 1 = Histone deacetylase 1 (Homo sapiens, UniProt Q13547); test: (§1) Enzyme Assay: The assay have been carried out in a 96 well format and the BIOMOL using a fluorescent-based HDAC activity assay.
# Histone deacetylase 8 = biological target: T1, Histone deacetylase 8 (Homo sapiens, UniProt Q9BY41); test: as §1
# T1 sequence (Q9BY41 whole entry): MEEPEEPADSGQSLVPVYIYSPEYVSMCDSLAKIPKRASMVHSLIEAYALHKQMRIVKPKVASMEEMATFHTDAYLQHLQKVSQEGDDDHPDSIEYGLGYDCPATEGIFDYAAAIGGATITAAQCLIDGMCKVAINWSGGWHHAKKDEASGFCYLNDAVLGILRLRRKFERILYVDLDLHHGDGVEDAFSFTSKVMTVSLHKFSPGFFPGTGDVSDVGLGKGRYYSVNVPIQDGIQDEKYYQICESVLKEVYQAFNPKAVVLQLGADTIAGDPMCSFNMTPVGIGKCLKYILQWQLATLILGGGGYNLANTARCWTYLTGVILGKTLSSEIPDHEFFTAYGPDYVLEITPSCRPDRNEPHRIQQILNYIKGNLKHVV
# Sequence of Histone deacetylase 1 (Q13547 whole entry): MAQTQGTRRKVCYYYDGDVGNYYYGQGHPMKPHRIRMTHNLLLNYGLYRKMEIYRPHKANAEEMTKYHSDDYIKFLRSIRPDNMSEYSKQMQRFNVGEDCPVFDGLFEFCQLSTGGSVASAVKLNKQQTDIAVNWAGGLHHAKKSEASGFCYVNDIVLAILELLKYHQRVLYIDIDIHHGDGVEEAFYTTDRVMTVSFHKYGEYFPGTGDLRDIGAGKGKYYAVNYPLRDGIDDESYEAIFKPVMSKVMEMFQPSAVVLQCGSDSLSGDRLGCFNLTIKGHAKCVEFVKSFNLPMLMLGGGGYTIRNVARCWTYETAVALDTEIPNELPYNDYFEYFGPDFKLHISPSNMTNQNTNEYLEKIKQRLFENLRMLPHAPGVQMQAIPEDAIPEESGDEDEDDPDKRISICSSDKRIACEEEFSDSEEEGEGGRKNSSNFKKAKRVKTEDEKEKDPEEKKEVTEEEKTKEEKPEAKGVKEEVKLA
Structure (SMILES),IC50 (Histone deacetylase 1) [nM],IC50 (Histone deacetylase 8) [nM]
COc1ccc(-c2nc3cc(/C=C/C(=O)NO)ccc3n2CC(O)CO)cc1 (stereo unspecified),1380,262
O=C(/C=C/c1ccc2c(c1)nc(C1CCCCC1)n2CCCO)NO,3240,203
COc1cc(-c2nc3cc(/C=C/C(=O)NO)ccc3n2C)ccc1OCc1ccccc1,1370,1710
